The values that follow come from patent US7012042B1, “Methods and products to protect against root intrusion and plant and root growth” (Growguard, LLC, Inc., priority 2002, dated 2006).

Series [1] is described as follows: Solubility of Trifluralin in methacrylate plasticizer/monomers. The note with it: in ethyl methacrylate and lauryl methacrylate. The format is physicochemical. The method, then:
A novel solution involving the polymerization of the plasticizer that remains within the fiber (FIG. 8) has been developed. Thus, a plasticizer is chosen that also is a monomer. It was determined that Trifluralin is quite soluble in ethyl methacrylate and lauryl methacrylate. […] Thus, technical feasibility is evident up to this point in the process.

A further series relates to plant root. The note with it: cited from earlier work.

Consider `CCCN(CCC)c1c([N+](=O)[O-])cc(C(F)(F)F)cc1[N+](=O)[O-]` [Trifluralin], for which, in series [1], the solubility entry is “quite soluble”. The “concentration highly effective in preventing root elongation” value with plant root (95% of the plants tested, prior efforts) was 2–5 ppm. Further, the “concentration required to inhibit root growth” value with plant root (a few of the plants tested, prior efforts) is given as 10 ppm. Moreover, the “concentration sufficient to inhibit root growth” value in the series with plant root (in gels and water-saturated soils adjacent to a pipe leakage area) was 5–10 ppm.
